What was measured:
[1] = test system: human bronchial smooth muscle cells; assay type: cell-based; conditions: for IC50: read-out: IC50 for rapidly inhibiting formoterol uptake by human bronchial smooth muscle cells, 200 nmol/l [3H]-formoterol, mean, n = 6
OCT3 = target: T1, OCT3 (Homo sapiens, UniProt O75751); conditions: bronchial smooth muscle cells, OCT3 targeted shRNA
T1 sequence (O75751 1-556): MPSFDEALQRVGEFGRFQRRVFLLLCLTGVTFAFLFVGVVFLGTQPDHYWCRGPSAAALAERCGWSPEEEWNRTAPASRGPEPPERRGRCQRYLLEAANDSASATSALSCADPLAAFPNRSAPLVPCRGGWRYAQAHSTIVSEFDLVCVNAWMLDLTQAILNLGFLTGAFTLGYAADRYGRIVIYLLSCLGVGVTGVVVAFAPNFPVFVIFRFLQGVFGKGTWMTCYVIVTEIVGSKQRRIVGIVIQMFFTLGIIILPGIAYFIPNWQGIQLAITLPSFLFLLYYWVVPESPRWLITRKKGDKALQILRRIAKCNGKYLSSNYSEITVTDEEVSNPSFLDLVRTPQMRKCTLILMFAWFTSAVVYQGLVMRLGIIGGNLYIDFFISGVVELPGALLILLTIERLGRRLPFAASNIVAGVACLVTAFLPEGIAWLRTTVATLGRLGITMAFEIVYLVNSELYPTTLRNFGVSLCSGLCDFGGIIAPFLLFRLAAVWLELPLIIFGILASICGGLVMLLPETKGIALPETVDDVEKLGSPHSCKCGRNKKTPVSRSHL

[2] = test system: human airway epithelial cells; assay: Corticosteroid effect on tritiated drug uptake by airway epithelial cells; assay type: cell-based; conditions: 5 μmol/l
[3] = test system: human airway epithelial cells; assay: Cellular drug uptake by airway epithelial cells; conditions: 37°C, 15 min; for cellular uptake in airway epithelial cells: 200 nmol/l [3H]-formoterol or [3H]-salmeterol
[4] = test system: human bronchial smooth muscle cells; assay: Cellular drug uptake by bronchial smooth muscle cells; conditions: 37°C, 15 min; for cellular uptake in smooth muscle cells: 200 nmol/l [3H]-formoterol or [3H]-salmeterol

## CCC(=O)O[C@]1(C(=O)CO)[C@@H](C)C[C@H]2[C@@H]3CCC4=CC(=O)C=C[C@]4(C)[C@@]3(Cl)[C@@H](O)C[C@@]21C [Beclomethasone 17-monopropionate]
[1]; 15-min incubation
  IC50: 4.04 µM

## C[C@]12C[C@H](O)[C@H]3[C@@H](CCC4=CC(=O)CC[C@@]43C)[C@@H]1CC[C@@H]2C(=O)CO [Corticosterone]
[1]; 5 μM, 100 μM actinomycin D added 60 min prior to transport measurements
  action on formoterol uptake in presence of transcription inhibitor actinomycin D: insensitive
[1]; 5 μmol/l, 15-min incubation
  effect on MPP+ uptake by bronchial smooth muscle cells: significantly reduced
[1]; 5 μmol/l, 15 min
  effect on salmeterol uptake in bronchial smooth muscle cells: insensitive to corticosterone
[1]; 5 μmol/l, bronchial smooth muscle cells
  inhibitory action on formoterol uptake after pretreatment for 45 or 90 min: not enhanced
OCT3
  inhibitory effect on formoterol uptake under OCT3 mRNA suppression: reduces
[2]; 15-min incubation
  effect on MPP+ uptake by airway epithelial cells: but not airway epithelial cells
[2]; 15 min
  effect on salmeterol uptake in epithelial cells: insensitive to corticosterone
  rapid inhibitory effect on formoterol uptake in epithelial cells: not in epithelial cells

## CCC(=O)O[C@]1(C(=O)SCF)[C@H](C)C[C@H]2[C@@H]3C[C@H](F)C4=CC(=O)C=C[C@]4(C)[C@@]3(F)[C@@H](O)C[C@@]21C [Fluticasone propionate]
[1]; 15-min incubation
  IC50: 6.29 µM

## C[n+]1ccc(-c2ccccc2)cc1 [MPP^+, N-methyl-4-phenylpyridinium]
[3]; 5 nmol/l [3H]-MPP+
  cellular uptake of MPP+ in epithelial cells: 0.18 ± 0.03 pmol/mg protein/15 min
[4]; 5 nmol/l [3H]-MPP+
  cellular uptake of MPP+ in smooth muscle cells: 0.21 ± 0.02 pmol/mg protein/15 min

## COc1ccc(CC(C)NCC(O)c2ccc(O)c(NC=O)c2)cc1 (stereo not shown) [formoterol]
[3]
  cellular uptake in airway epithelial cells: 8.9 ± 0.5 pmol/mg protein/15 min
[4]
  cellular uptake in smooth muscle cells: 28.1 ± 1.6 pmol/mg protein/15 min

## OCc1cc(C(O)CNCCCCCCOCCCCc2ccccc2)ccc1O (stereo not shown) [salmeterol]
[3]
  cellular uptake in airway epithelial cells: 46.6 ± 1.9 pmol/mg protein/15 min
[4]
  cellular uptake in smooth muscle cells: 306.9 ± 13.3 pmol/mg protein/15 min

Reference: article PMC3220932 (Pulmonary pharmacology & therapeutics, 2011)
